Active and inactive are the calls of the source. The rule behind the calls is not given here.
How the values were obtained:
[1] = tested on: Pseudomonas aeruginosa; test: Antibacterial activity against Pseudomonas aeruginosa PAO1 assessed as inhibition of bacterial growth incubated for 24 hrs by serial dilution method; format: functional
[2] = tested on: Pseudomonas aeruginosa; test: Antibiofilm activity against Pseudomonas aeruginosa PA14 assessed as inhibition of biofilm formation incubated for 24 hrs by crystal violet staining based analysis; format: functional, organism-based; details: PA14, 24 h
[3] = tested on: Pseudomonas aeruginosa; test: Antibiofilm activity against Pseudomonas aeruginosa PAO1 assessed as inhibition of biofilm formation at 0.15625 uM incubated for 24 hrs by crystal violet staining based analysis relative to control; format: functional
[4] = tested on: Pseudomonas aeruginosa; test: Antibiofilm activity against Pseudomonas aeruginosa PAO1 assessed as decrease in biofilm formation incubated for 24 hrs by crystal violet staining based analysis; format: functional, organism-based; details: dose 0.3125-10 µM
[5] = tested on: Pseudomonas aeruginosa; test: Antibiofilm activity against Pseudomonas aeruginosa PA1129 assessed as inhibition of biofilm formation incubated for 24 hrs by crystal violet staining based analysis; format: functional, organism-based
[6] = tested on: Pseudomonas aeruginosa; test: Antibiofilm activity against Pseudomonas aeruginosa PA1167 assessed as inhibition of biofilm formation incubated for 24 hrs by crystal violet staining based analysis; format: functional, organism-based
[7] = tested on: Pseudomonas aeruginosa; test: Antibiofilm activity against Pseudomonas aeruginosa PA108 assessed as inhibition of biofilm formation incubated for 24 hrs by crystal violet staining based analysis; format: functional, organism-based
[8] = tested on: Pseudomonas aeruginosa; test: Antivirulence activity in Pseudomonas aeruginosa PAO1 assessed as reduction in pyocyanin at 10 uM production incubated for 24 hrs relative to control; format: functional; design: scale not given: the % may be the effect or the level left
[9] = tested on: Pseudomonas aeruginosa; test: Antivirulence activity in Pseudomonas aeruginosa PAO1 assessed as reduction in pyocyanin production incubated for 24 hrs; format: functional, organism-based; details: dose 10.0 µM
[10] = tested on: Pseudomonas aeruginosa; test: Antivirulence activity in Pseudomonas aeruginosa PAO1 assessed as reduction in elastase production at 10 uM incubated for 24 hrs relative to control; format: functional; design: scale not given: the % may be the effect or the level left
[11] = tested on: Pseudomonas aeruginosa; test: Antivirulence activity in Pseudomonas aeruginosa PAO1 assessed as reduction in extracellular polysaccharides production at 10 uM incubated for 24 hrs relative to control; format: functional; design: scale not given: the % may be the effect or the level left
[12] = Inhibition of quorum sensing system in Pseudomonas aeruginosa PAO1-gfp assessed as reduction in fluorescence intensity at 0.3125 to 10 uM measured upto 16 hrs by GFP reporter strain assay; details: dose 0.3125-10 µM
[13] = Inhibition of quorum sensing system in Pseudomonas aeruginosa PAO1-lasB-gfp assessed as reduction in fluorescence intensity at 0.3125 to 10 uM measured upto 16 hrs by GFP reporter strain assay; details: dose 0.3125-10 µM
[14] = Inhibition of quorum sensing system in Pseudomonas aeruginosa PAO1-pqsa-gfp assessed as reduction in fluorescence intensity at 0.3125 to 10 uM measured upto 16 hrs by GFP reporter strain assay; details: dose 0.3125-10 µM
[15] = tested on: Pseudomonas aeruginosa; test: Antibiofilm activity against Pseudomonas aeruginosa PAO1 assessed as reduction in pFe(III) content incubated for 24 hrs; format: functional
[16] = tested on: Pseudomonas aeruginosa; test: Antibiofilm activity against Pseudomonas aeruginosa PAO1 assessed as reduction in pFe(III) content incubated for 24 hrs by cell total iron colorimetric assay; format: functional, organism-based; details: dose 0.3125-10 µM
[17] = tested on: Pseudomonas aeruginosa; test: Antibiofilm activity against Pseudomonas aeruginosa PAO1 assessed as increase in pyoverdine level incubated for 2 hrs by fluorescence based analysis; format: functional, organism-based; details: dose 0.3125-10 µM
[18] = tested on: Pseudomonas aeruginosa; test: Antibiofilm activity against Pseudomonas aeruginosa PAO1 assessed as increase in pyochelin level incubated for 2 hrs by fluorescence based analysis; format: functional, organism-based; details: dose 0.3125-10 µM
[19] = tested on: Pseudomonas aeruginosa; test: Antibiofilm activity against Pseudomonas aeruginosa PAO1 assessed as fold increase in pyoverdine level at 10 uM incubated for 2 hrs by fluorescence based analysis; format: functional
[20] = tested on: Pseudomonas aeruginosa; test: Antibiofilm activity against Pseudomonas aeruginosa PAO1 assessed as fold increase in pyochelin level at 10 uM incubated for 2 hrs by fluorescence based analysis; format: functional
[21] = tested on: Pseudomonas aeruginosa; test: Antibiofilm activity against Pseudomonas aeruginosa PAO1 overexpressing fpvA assessed as inhibition of biofilm formation at 0.3125 to 10 uM incubated for 24 hrs by crystal violet staining based analysis; format: functional, organism-based; details: dose 0.3125-10 µM
[22] = tested on: Pseudomonas aeruginosa; test: Anti-motility activity against Pseudomonas aeruginosa PAO1 assessed as reduction in swarming motility incubated for 24 hrs; format: functional, organism-based; details: dose 0.3125-10 µM
[23] = tested on: Pseudomonas aeruginosa; test: Anti-motility activity against Pseudomonas aeruginosa PAO1 assessed as reduction in swimming motility incubated for 24 hrs; format: functional, organism-based; details: dose 0.3125-10 µM
[24] = tested on: Pseudomonas aeruginosa; test: Anti-motility activity against Pseudomonas aeruginosa PAO1 assessed as reduction in swimming motility at 10 uM incubated for 24 hrs relative to control; format: functional; design: scale not given: the % may be the effect or the level left
[25] = tested on: Pseudomonas aeruginosa; test: Anti-motility activity against Pseudomonas aeruginosa PAO1 assessed as reduction in pili formation at 0.3125 to 10 uM incubated for 16 hrs by SEM analysis; format: functional, organism-based; details: dose 0.3125-10 µM
[26] = Hemolytic activity in mouse red blood cells at < 40 uM; format: toxicity, cell-based; details: erythrocyte
[27] = Hemolytic activity in rabbit red blood cells at < 40 uM; format: toxicity, cell-based, Oryctolagus cuniculus; details: erythrocyte
[28] = tested on: Pseudomonas aeruginosa; test: Synergistic […] activity against Pseudomonas aeruginosa PAO1 assessed as fractional inhibitory concentration index measured for 20 hrs in presence of ciprofloxacin by microdilution checkboard assay; format: functional
[29] = tested on: Pseudomonas aeruginosa; test: Synergistic […] activity against Pseudomonas aeruginosa PAO1 assessed as fractional inhibitory concentration index measured for 20 hrs in presence of tobramycin by microdilution checkboard assay; format: functional
[30] = tested on: Pseudomonas aeruginosa; test: Antibiofilm activity against Pseudomonas aeruginosa PAO1 assessed as inhibition of biofilm formation at 2.5 incubated for 24 hrs by crystal violet staining based analysis; format: functional
[31] = tested on: Pseudomonas aeruginosa; test: Antibacterial activity against Pseudomonas aeruginosa PAO1 infected in BALB/c mouse wound infection model measured after 3 days; format: functional, organism-based; details: time 3.0 day
[32] = tested on: Pseudomonas aeruginosa; test: Antibacterial activity against Pseudomonas aeruginosa PAO1 infected in BALB/c mouse wound infection model assessed as bacterial survival rate in wound at 2.5 uM administered to wound once a day for 3 days in dropwise manner in presence of tobramycin; format: functional; details: PAO1, 72 h, time 3 day
[33] = tested on: Pseudomonas aeruginosa; test: Antibacterial activity against Pseudomonas aeruginosa PAO1 infected in BALB/c mouse wound infection model assessed as reduction in wound area at 2.5 uM administered to wound once a day for 3 days and measured after 9 days in dropwise manner in presence of Tob; format: functional; design: scale not given: the % may be the effect or the level left; details: time 12 day
[34] = Toxicity in BALB/c mouse assessed as change in body weight; details: in vivo
[35] = Toxicity in BALB/c mouse assessed as heart damage by H and E staining based analysis; format: tissue-based; details: in vivo
[36] = Toxicity in BALB/c mouse assessed as liver damage by H and E staining based analysis; format: tissue-based; details: in vivo
[37] = tested on: Pseudomonas aeruginosa; test: Antibacterial activity against Pseudomonas aeruginosa PAO1 infected in BALB/c mouse wound infection model assessed as bacterial survival rate in wound at 2.5 uM administered to wound once a day for 3 days in dropwise manner in presence of ciprofloxacin; format: functional; details: PAO1, 72 h, time 3 day
[38] = tested on: Pseudomonas aeruginosa; test: Antibacterial activity against Pseudomonas aeruginosa PAO1 infected in BALB/c mouse wound infection model assessed as reduction in wound area at 2.5 uM administered to wound once a day for 3 days and measured after 9 days in dropwise manner in presence of ciprofloxacin; format: functional; design: scale not given: the % may be the effect or the level left; details: time 12 day
[39] = Toxicity in BALB/c mouse wound infection model assessed as change in body weight measured for 9 days; details: in vivo, 216 h, time 9 day
[40] = Toxicity in BALB/c mouse wound infection model assessed as heart damage measured for 9 days by H and E staining based analysis; format: tissue-based; details: in vivo, 216 h, time 9 day
[41] = Toxicity in BALB/c mouse wound infection model assessed as spleen damage measured for 9 days by H and E staining based analysis; format: tissue-based; details: in vivo, 216 h, time 9 day
[42] = Toxicity in BALB/c mouse wound infection model assessed as lung damage measured for 9 days by H and E staining based analysis; format: tissue-based; details: in vivo, 216 h, time 9 day
[43] = Toxicity in BALB/c mouse wound infection model assessed as kidney damage measured for 9 days by H and E staining based analysis; format: tissue-based; details: in vivo, 216 h, time 9 day

## COc1ccc2nc(NCC(=O)NCCCCC(=O)NO)sc2c1
[1]
  MIC: > 256 µM
[2]
  IC50: 1450 nM
[3]
  inhibition at 0.1562 µM: 40%
[4]
  Activity: Dose-dependent-effect
[5]
  Activity: Active
[6]
  Activity: Active
[7]
  Activity: Active
[8]
  Activity: 42%
[9]
  Activity: Dose-dependent-effect
[10]
  Activity: 43%
[11]
  Activity: 58%
[12]
  inhibition: inactive
[13]
  inhibition: Active
[14]
  inhibition: Active
[15]
  Activity: 19.61
[16]
  Activity: Dose-dependent-effect
[17]
  Activity: Dose-dependent-effect
[18]
  Activity: Dose-dependent-effect
[19]
  fold change (FC): 3.4
[20]
  fold change (FC): 1.7
[21]
  Activity: No effect
[22]
  Activity: Dose-dependent-effect
[23]
  Activity: Dose-dependent-effect
[24]
  Activity: 64%
[25]
  Activity: Active
[26]
  Activity: Non-toxic
[27]
  Activity: Non-toxic
[28]
  fractional inhibitory concentration index (FICI): 0.25
[29]
  fractional inhibitory concentration index (FICI): 0.29
[30]
  inhibition (INH): 65%
[31]
  Activity: No effect
[32]
  survival at 2.5 µM: 0.97%
[33]
  Activity: 35%
[34]
  Activity: Non-toxic
[35]
  Activity: Non-toxic
[36]
  Activity: Non-toxic
[37]
  survival at 2.5 µM: 0.45%
[38]
  Activity: 38%
[39]
  Activity: Non-toxic
[40]
  Activity: Non-toxic
[41]
  Activity: Non-toxic
[42]
  Activity: Non-toxic
[43]
  Activity: Non-toxic

Reference: ChEMBL document CHEMBL6103650, “Hybrid Molecules of Benzothiazole and Hydroxamic Acid as Dual-Acting Biofilm Inhibitors with Antibacterial Synergistic Effect against Pseudomonas aeruginosa Infections” (J Med Chem, 2025)
